Molecular target: IGF1R (Homo sapiens, UniProt P08069)
Test: Cellular IGF-1R assay: inhibition of IGF1R phosphorylation in transduced Hek293 cells, capture ELISA (MSD)
Assay type: cell-based
Design: Hek293 cells transduced with the corresponding receptors; expressed in transfected cells; host or cells: Hek293 (Hek293-IGF1R)
Description: In this assay the activity of the compounds of the invention against Insulin-like growth factor I (IGF-1) induced autophosphorylation of the IGF-IR is determined. The assay is conducted as follows: Compound-mediated inhibition of IGF1R and INSR phosphorylation in Hek293 cells transduced with the corresponding receptors is assessed in a capture ELISA format using the MSD (Meso Scale Discovery) platform. Briefly, 30′000 cells washed and diluted in starvation medium (DMEM high glucose supplemented with 0.1% BSA) are seeded in 90 μL per well into 96-well plates pre-coated with poly-D-lysine (0.1 mg/mL in PBS/0). After 24 h incubation at 37° C. and 5% CO2, dose-response effects are determined with 3-fold serial compound dilutions, starting at 10 μM. The final vehicle concentration is 0.1% DMSO in all wells. Following pre-incubation with compounds for 1 h, receptor phosphorylation is triggered by a 10 min exposure to 1.0 ng/μL IGF for Hek293-IGF1R cells, and 5.0 ng/μL insulin for Hek293-InsR cells. Cell lysis is achieved by addition of 80 μL MSD lysis buffer per aspirated well, incubation on ice for 20 min, and a freeze-thaw cycle. Target phosphorylation is then assessed by transferring volumes corresponding to approx. 6 μg Hek293-IGF1R or 0.6 μg Hek293-InsR lysates to MSD assay plates pre-coated with total-IGF1R or total-InsR Abs, respectively. After incubation for 2 h at rt, wells are exposed for 1 hr to a rabbit monoclonal antibody (CST #3024, 1:1000) detecting pIGF1R(Tyr1135/1136) as well as pINSR(Tyr1150/1151). Immune complexes are detected by a SULFO-Tag™-coupled anti-rabbit IgG antibody in the presence of 150 μL MSD read-buffer. Light emission at 620 nm triggered by application of electric current is recorded on a MSD SectorImager 6000. Acquired raw data (mean Ru-ECL units) are processed in an Excel analysis template. The plate blank (MSD lysis buffer) is subtracted from all data points. The effect of a particular test compound concentration on receptor phosphorylation is expressed relative to the window defined by ligand-stimulated vs unstimulated control cells (set as 100%). IC50 values [nM] are determined using 4-parametric curve-fitting (XLfit software, V4.3.2). Alternatively, the assay can be conducted with a slightly different format; Compound-mediated inhibition of IGF-1R and InsR phosphorylation in HEK293 cells overexpressing the corresponding receptors were assessed by quantitative Western blot using an Odyssey infrared imager as readout.
Compound-mediated inhibition of IGF1R and INSR phosphorylation in Hek293 cells transduced with the corresponding receptors is assessed in a capture ELISA format using the MSD (Meso Scale Discovery) platform. Briefly, 30′000 cells washed and diluted in starvation medium (DMEM high glucose supplemented with 0.1% BSA) are seeded in 90 μL per well into 96-well plates pre-coated with poly-D-lysine (0.1 mg/mL in PBS/O). After 24 h incubation at 37° C. and 5% CO2, dose-response effects are determined with 3-fold serial compound dilutions, starting at 10 μM. The final vehicle concentration is 0.1% DMSO in all wells. Following pre-incubation with compounds for 1 h, receptor phosphorylation is triggered by a 10 min exposure to 1.0 ng/μL IGF for Hek293-IGF1R cells, and 5.0 ng/μL insulin for Hek293-InsR cells. Cell lysis is achieved by addition of 80 μL MSD lysis buffer per aspirated well, incubation on ice for 20 min, and a freeze-thaw cycle. Target phosphorylation is then assessed by transferring volumes corresponding to approx. 6 μg Hek293-IGF1R or 0.6 μg Hek293-lnsR lysates to MSD assay plates pre-coated with total-IGF1R or total-lnsR Abs, respectively. After incubation for 2 h at rt, wells are exposed for 1 hr to a rabbit monoclonal antibody (CST #3024, 1:1000) detecting pIGF1R(Tyr1135/1136) as well as pINSR(Tyr1150/1151). Immune complexes are detected by a SULFO-Tag™-coupled anti-rabbit IgG antibody in the presence of 150 μL MSD read-buffer. […]

Chain of IGF1R (P08069 31-1367): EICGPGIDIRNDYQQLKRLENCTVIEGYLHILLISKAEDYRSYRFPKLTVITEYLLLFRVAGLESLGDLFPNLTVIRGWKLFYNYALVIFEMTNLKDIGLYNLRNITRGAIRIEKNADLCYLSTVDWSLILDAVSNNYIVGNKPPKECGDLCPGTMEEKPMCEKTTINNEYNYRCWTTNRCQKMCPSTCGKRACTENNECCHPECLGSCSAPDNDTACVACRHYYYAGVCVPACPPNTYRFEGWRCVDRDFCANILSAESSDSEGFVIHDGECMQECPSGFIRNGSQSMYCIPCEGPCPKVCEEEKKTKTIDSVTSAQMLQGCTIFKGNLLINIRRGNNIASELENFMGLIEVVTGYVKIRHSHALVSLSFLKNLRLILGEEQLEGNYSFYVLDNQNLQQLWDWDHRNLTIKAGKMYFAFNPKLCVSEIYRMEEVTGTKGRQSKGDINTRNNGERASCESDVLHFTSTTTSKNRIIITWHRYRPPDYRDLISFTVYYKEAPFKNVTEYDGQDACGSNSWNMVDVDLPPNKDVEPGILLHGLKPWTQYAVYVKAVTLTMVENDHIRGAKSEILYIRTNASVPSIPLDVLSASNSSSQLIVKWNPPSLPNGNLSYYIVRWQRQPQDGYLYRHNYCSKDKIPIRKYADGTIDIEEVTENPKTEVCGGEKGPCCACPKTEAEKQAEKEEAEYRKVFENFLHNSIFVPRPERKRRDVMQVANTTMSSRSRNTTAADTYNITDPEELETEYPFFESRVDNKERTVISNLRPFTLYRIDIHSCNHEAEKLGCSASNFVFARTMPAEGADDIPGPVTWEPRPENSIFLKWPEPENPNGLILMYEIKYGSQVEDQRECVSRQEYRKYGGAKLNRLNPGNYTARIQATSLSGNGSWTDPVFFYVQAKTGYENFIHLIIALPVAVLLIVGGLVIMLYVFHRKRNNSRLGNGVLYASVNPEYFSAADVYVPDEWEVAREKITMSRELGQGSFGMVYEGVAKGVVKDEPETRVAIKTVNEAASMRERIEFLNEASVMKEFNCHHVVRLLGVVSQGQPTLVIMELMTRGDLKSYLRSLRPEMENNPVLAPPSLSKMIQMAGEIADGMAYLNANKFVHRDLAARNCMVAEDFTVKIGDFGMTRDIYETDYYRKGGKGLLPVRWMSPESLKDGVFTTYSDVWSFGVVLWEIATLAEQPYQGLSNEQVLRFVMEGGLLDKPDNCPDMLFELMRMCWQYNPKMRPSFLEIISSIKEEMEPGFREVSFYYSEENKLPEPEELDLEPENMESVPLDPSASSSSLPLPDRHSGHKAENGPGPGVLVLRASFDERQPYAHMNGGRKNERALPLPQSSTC

Row | Compound | IC50 [µM]
1 | Nc1ncnc2c1c(-c1ccc3c(c1)OC(C1CCCO1)CC3)cn2C1CC(CN2CC3CC2CS3(=O)=O)C1 (mixture of isomers) [Example 67, 7-[cis-3-((S,S)-2,2-dioxo-2λ6-thia-5-aza-bicyclo[2,2,1]hept-5-ylmethyl)-cyclobutyl]-5-[2-cis-(tetrahydro-furan-2-yl-chroman-7-yl)-7H-pyrrolo[2,3-d]pyrimidin-4-ylamine] | 0.017
2 | Nc1ncnc2c1c(-c1ccc3c(c1)OC(c1ccccc1)CC3)cn2[C@H]1C[C@@](O)(CN2CCS(=O)(=O)CC2)C1 (stereo partly drawn) [Example 45, (E)-3-[4-Amino-5-(2-phenyl-chroman-7-yl)-pyrrolo[2,3-d]pyrimidin-7-yl]-1-(1,1-dioxothiomorpholin-4-ylmethyl)-cyclobutanol] | < 0.005
3 | (R,S)—(Z)-3-[8-Amino-1-(2-phenyl-chroman-7-yl)-imidazo[1,5-a]pyrazin-3-yl]-1-hydroxymethyl-cyclobutanol and (R,S)-(E)-3-[8-amino-1-(2-phenyl-chroman-7-yl)-imidazo[1,5-a]pyrazin-3-yl]-1-hydroxymethyl-cyclobutanol [Example 5] | 0.1
4 | Nc1ncnc2c1c(-c1ccc3c(c1)OC1(CCCCC1)CC3)cn2[C@H]1C[C@@H](CN2CCS(=O)(=O)CC2)C1 [Example 53, 7-(cis-3-(1,1-dioxo-thiomorpholin-4-ylmethyl)cyclobutyl)-5-(spiro[chroman-2,1′-cyclohexane]-7-yl)-7H-pyrrolo[2,3-d]pyrimidin-4-amine] | 0.202
5 | Nc1ncnc2c1c(-c1ccc3c(c1)OC(c1ccccc1)CC3)cn2[C@H]1C[C@H](O)C1 (relative stereo) [Example 49, trans-3-[4-Amino-5-(2-phenyl-chroman-7-yl)-pyrrolo[2,3-d]pyrimidin-7-yl]-cyclobutanol] | 0.096
6 | Nc1ncnc2c1c(-c1ccc3c(c1)OC(C1CCCO1)CC3)cn2C1CC(O)(CO)C1 (single isomer, unassigned) [Example 33, (u)-(E)-3-{4-amino-5-[2-(tetrahydro-furan-2-yl)-chroman-7-yl]-pyrrolo[2,3-d]pyrimidin-7-yl}-1-hydroxymethyl-cyclobutanol] | 0.395
7 | Nc1ncnc2c1c(-c1ccc3c(c1)OC(c1ccccc1)CC3)cn2[C@H]1C[C@@H](O)C1 (relative stereo) [Example 48, cis-3-[4-Amino-5-(2-phenyl-chroman-7-yl)-pyrrolo[2,3-d]pyrimidin-7-yl]-cyclobutanol] | 0.088
8 | Nc1ncnc2c1c(-c1ccc3c(c1)OC(c1ccccc1)CC3)cn2[C@H]1C[C@@]2(COC(=O)O2)C1 (stereo partly drawn) [Example 43, (E)-2-[4-Amino-5-(2-phenyl-chroman-7-yl)-pyrrolo[2,3-d]pyrimidin-7-yl]-5,7-dioxa-spiro[3.4]octan-6-one] | 0.076
9 | CC(C)C(=O)N[C@H]1CC[C@@H](n2cc(-c3ccc4c(c3)OC(c3ccccc3)CC4)c3c(N)ncnc32)CC1 (mixture of isomers) [Example 52, (±)-N-(cis-4-(4-amino-5-(2-phenylchroman-7-yl)-7H-pyrrolo[2,3-d]pyrimidin-7-yl)cyclohexyl)isobutyramide] | 0.099
10 | Nc1ncnc2c1c(-c1ccc3c(c1)OC(c1ccccc1)C=C3)cn2[C@H]1C[C@@H](CO)C1 (mixture of isomers) [Example 23, (R,S)-{cis-3-[4-Amino-5-(2-phenyl-2H-chromen-7-yl)-pyrrolo[2,3-d]pyrimidin-7-yl]-cyclobutyl}-methanol] | 0.012
11 | Nc1ncnc2c1c(-c1ccc3c(c1)OC(c1ccccc1)CC3)cn2C1CC(O)(CO)C1 (single isomer, unassigned) [Example 42, (Z)-3-K-Amino-5-(2-phenyl-chroman-7-yl)-pyrrolo[2,3-d]pyrimidin-7-yl]-1-hydroxymethyl-cyclobutanol] | 0.272 to 0.338
12 | Nc1ncnc2c1c(-c1ccc3c(c1)OC(c1ccccc1)CC3)cn2[C@H]1C[C@@](O)(CO)C1 (mixture of isomers) [Example 8, (R,S)-(E)-3-[4-Amino-5-(2-phenyl-chroman-7-yl)-pyrrolo[2,3-d]pyrimidin-7-yl]-1-hydroxymethyl-cyclobutanol] | 0.095
13 | Nc1ncnc2c1c(-c1ccc3c(c1)OC(c1ccccc1)CC3)cn2[C@H]1C[C@@H](CN2[C@@H]3CC[C@H]2C[C@H](O)C3)C1 (mixture of isomers) [Example 36, (R,S)-8-{cis-3-[4-Amino-5-(2-phenyl-chroman-7-yl)-pyrrolo[2,3-d]pyrimidin-7-yl]-cyclobutylmethyl}-8-aza-bicyclo[3.2.1]octan-3-ol] | 0.087
14 | CN1CCN(CC2CC(n3cc(-c4ccc5c(c4)OC(c4ccccc4)CC5)c4c(N)ncnc43)C2)CC1=O (stereo not drawn) [Example 46, 4-{3-[4-Amino-5-(2-phenyl-chroman-7-yl)-pyrrolo[2,3-d]pyrimidin-7-yl]-cyclobutylmethyl}-1-methyl-piperazin-2-one] | 0.049
15 | Nc1nccn2c1c(-c1ccc3c(c1)OC(c1ccccc1)CC3)nc2[C@H]1C[C@@H](CO)C1 (mixture of isomers) [Example 3, (R,S)-{cis-3-[8-Amino-1-(2-phenyl-chroman-7-yl)-imidazo[1,5-a]pyrazin-3-yl]-cyclobutyl}-methanol] | 0.076
16 | Nc1ncnc2c1c(-c1ccc3c(c1)O[C@@H](c1ccccc1)CC3)cn2[C@H]1C[C@@H](CN2CCS(=O)(=O)CC2)C1 [Example 24, (R)-7-[cis-3-(1,1-Dioxo-thiomorpholin-4-ylmethyl)-cyclobutyl]-5-(2-phenyl-chroman-7-yl)-7H-pyrrolo[2,3-d]pyrimidin-4-ylamine] | 0.008
17 | CC1(O)CC(c2nc(-c3ccc4c(c3)O[C@@H](c3ccccc3)CC4)c3c(N)nccn23)C1 (stereo partly drawn) [Example 19, (R,S)—(Z)-3-[8-Amino-1-(2-phenyl-chroman-7-yl)-imidazo[1,5-a]pyrazin-3-yl]-1-methylcyclobutanol] | 0.158
18 | NC(=O)[C@@H]1CCCN1C[C@H]1C[C@@H](c2nc(-c3ccc4c(c3)OC(c3ccccc3)CC4)c3c(N)nccn32)C1 (mixture of isomers) [Example 4, 1-{cis-3,8-Amino-1-((R)-2-phenyl-chroman-7-yl)-imidazo[1,5-a]pyrazin-3-yl]-cyclobutylmethyl}-(S)-pyrrolidine-2-carboxylic acid amide and 1-{cis-3-[8-amino-1-((S)-2-phenyl-chroman-7-yl)-imidazo[1,5-a]pyrazin-3-yl]-cyclobutylmethyl}-(S)-pyrrolidine-2-carboxylic acid amide] | 0.346
19 | Nc1ncnc2c1c(-c1ccc3c(c1)OC(C1CCCO1)CC3)cn2C1CC(O)(CO)C1 (single isomer, unassigned) [Example 35] | 0.055
20 | Nc1ncnc2c1c(-c1ccc3c(c1)OC(c1ccccn1)CC3)cn2C1CC(CN2CC3CC2CS3(=O)=O)C1 [Example 62, 7-[cis-3-((S,S)-2,2-Dioxo-2λ6-thia-5-aza-bicyclo[2,2,1]kept-5-ylmethyl)-cyclobutyl]-5-(2-pyridin-2-yl-chroman-7-yl)-7H-pyrrolo[2,3-d]pyrimidin-4-ylamine] | 0.069
21 | Nc1ncnc2c1c(-c1ccc3c(c1)OC(c1ccccc1)CC3)cn2C1CC(O)(CO)C1 (single isomer, unassigned) [Example 41, (Z)-3-K-Amino-5-(2-phenyl-chroman-7-yl)-pyrrolo[2,3-d]pyrimidin-7-yl]-1-hydroxymethyl-cyclobutanol] | 0.044 to 0.143
